Assays:
Assay in all cases: Test D controlled growth environment herbicide test, pre- and postemergence
Assay type in all cases: in vivo
[1] = tested on: Russian thistle (Salsola kali)
In short: (§1)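 Rating is visual, 0–100 scale (100 = complete control), made against untreated plants 14–21 d after treatment in controlled growth conditions. Postemergence sprays went onto 1- to 4-leaf plants in peat medium; preemergence sprays onto silt loam after sowing; formulation included a surfactant.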

[2] = tested on: barley, spring (spring barley, Hordeum vulgare)
In short: as §1

[3] = tested on: chamomile (scentless chamomile, Matricaria inodora)
In short: as §1

[4] = tested on: chickweed (common chickweed, Stellaria media)
In short: as §1

[5] = tested on: deadnettle (henbit deadnettle, Lamium amplexicaule)
In short: as §1

[6] = tested on: field poppy (Papaver rhoeas)
In short: as §1

[7] = tested on: field violet (Viola arvensis)
In short: as §1

kochia (Kochia scoparia) = tested on: kochia (Kochia scoparia)
In short: as §1

[8] = tested on: mustard, wild (wild mustard, Sinapis arvensis)
In short: as §1

[9] = tested on: oat, wild (wild oat, Avena fatua)
In short: as §1

[10] = tested on: oilseed rape (Brassica napus)
In short: as §1

[11] = tested on: radish, wild (wild radish, Raphanus raphanistrum)
In short: as §1

[12] = tested on: speedwell (bird's-eye speedwell, Veronica persica)
In short: as §1

[13] = tested on: wheat, winter (winter wheat, Triticum aestivum)
In short: as §1

[14] = Postemergence, 31 g ai/ha, scale 0 to 100 (0 no effect, 100 complete control)
[15] = Postemergence, 125 g ai/ha, visual rating on scale 0 (no effect) to 100 (complete control), 14 to 21 d
[16] = Postemergence, 250 g ai/ha, scale 0 to 100 (0 no effect, 100 complete control)
[17] = Preemergence, 62 g ai/ha, scale 0 to 100 (0 no effect, 100 complete control)
[18] = Preemergence, 125 g ai/ha, scale 0 to 100 (0 no effect, 100 complete control)
[19] = Preemergence, 250 g ai/ha, scale 0 to 100, 0 no effect, 100 complete control
[20] = postemergence, 62 g ai/ha, scale 0 to 100, 0 no effect, 100 complete control

Cc1nn(C)c(=O)c(-c2ccc(Br)c3ccccc23)c1O [Compound 75]
Russian Thistle plant response rating [1, 14]: 80
Plant response rating, Russian Thistle [1, 15]: 85
Plant response rating, Russian Thistle [1, 16]: 85
Plant response rating (scale of 0 to 100), Russian Thistle ([1]; Preemergence, 31 g ai/ha): 0
Plant response rating, Russian Thistle [1, 17]: 0
Plant response rating, Russian Thistle [1, 18]: 25
Plant response rating, Russian Thistle [1, 19]: 35
Plant response rating, Russian Thistle [1, 20]: 80
Barley, Spring plant response rating [2, 14]: 0
Plant response rating, Barley, Spring [2, 15]: 0
Plant response rating, Barley, Spring [2, 16]: 0
Plant response rating (scale of 0 to 100), Barley, Spring ([2]; Preemergence, 31 g ai/ha): 0
Plant response rating, Barley, Spring [2, 17]: 0
Plant response rating, Barley, Spring [2, 18]: 0
Plant response rating, Barley, Spring [2, 19]: 0
Plant response rating, Barley, Spring [2, 20]: 0
Chamomile plant response rating [3, 14]: 80
Plant response rating, Chamomile [3, 15]: 85
Plant response rating, Chamomile [3, 16]: 100
Plant response rating, Chamomile [3, 20]: 90
Chickweed plant response rating [4, 14]: 100
Plant response rating, Chickweed [4, 15]: 100
Plant response rating, Chickweed [4, 16]: 100
Plant response rating (scale of 0 to 100), Chickweed ([4]; Preemergence, 31 g ai/ha): 90
Plant response rating, Chickweed [4, 17]: 100
Plant response rating, Chickweed [4, 18]: 95
Plant response rating, Chickweed [4, 19]: 100
Plant response rating, Chickweed [4, 20]: 100
Deadnettle plant response rating [5, 14]: 75
Plant response rating, Deadnettle [5, 15]: 95
Plant response rating, Deadnettle [5, 16]: 100
Plant response rating (scale of 0 to 100), Deadnettle ([5]; Preemergence, 31 g ai/ha): 30
Plant response rating, Deadnettle [5, 17]: 55
Plant response rating, Deadnettle [5, 18]: 90
Plant response rating, Deadnettle [5, 19]: 100
Plant response rating, Deadnettle [5, 20]: 90
Field Poppy plant response rating [6, 14]: 100
Plant response rating, Field Poppy [6, 15]: 100
Plant response rating, Field Poppy [6, 16]: 100
Plant response rating (scale of 0 to 100), Field Poppy ([6]; Preemergence, 31 g ai/ha): 0
Plant response rating, Field Poppy [6, 17]: 95
Plant response rating, Field Poppy [6, 18]: 100
Plant response rating, Field Poppy [6, 19]: 100
Plant response rating, Field Poppy [6, 20]: 100
Field Violet plant response rating [7, 14]: 95
Plant response rating, Field Violet [7, 15]: 95
Plant response rating, Field Violet [7, 16]: 100
Plant response rating (scale of 0 to 100), Field Violet ([7]; Preemergence, 31 g ai/ha): 95
Plant response rating, Field Violet [7, 17]: 100
Plant response rating, Field Violet [7, 18]: 100
Plant response rating, Field Violet [7, 19]: 100
Plant response rating, Field Violet [7, 20]: 100
Kochia plant response rating (kochia (Kochia scoparia); [14]): 95
Plant response rating, Kochia (kochia (Kochia scoparia); [15]): 100
Plant response rating, Kochia (kochia (Kochia scoparia); [16]): 100
Plant response rating (scale of 0 to 100), Kochia (kochia (Kochia scoparia); Preemergence, 31 g ai/ha): 65
Plant response rating, Kochia (kochia (Kochia scoparia); [17]): 80
Plant response rating, Kochia (kochia (Kochia scoparia); [18]): 80
Plant response rating, Kochia (kochia (Kochia scoparia); [19]): 100
Plant response rating, Kochia (kochia (Kochia scoparia); [20]): 100
Mustard, Wild plant response rating [8, 14]: 100
Plant response rating, Mustard, Wild [8, 15]: 100
Plant response rating, Mustard, Wild [8, 16]: 100
Plant response rating (scale of 0 to 100), Mustard, Wild ([8]; Preemergence, 31 g ai/ha): 55
Plant response rating, Mustard, Wild [8, 17]: 35
Plant response rating, Mustard, Wild [8, 18]: 100
Plant response rating, Mustard, Wild [8, 19]: 95
Plant response rating, Mustard, Wild [8, 20]: 100
Oat, Wild plant response rating [9, 14]: 50
Plant response rating, Oat, Wild [9, 15]: 85
Plant response rating, Oat, Wild [9, 16]: 80
Plant response rating (scale of 0 to 100), Oat, Wild ([9]; Preemergence, 31 g ai/ha): 55
Plant response rating, Oat, Wild [9, 17]: 65
Plant response rating, Oat, Wild [9, 18]: 80
Plant response rating, Oat, Wild [9, 19]: 85
Plant response rating, Oat, Wild [9, 20]: 70
Oilseed Rape plant response rating [10, 14]: 70
Plant response rating, Oilseed Rape [10, 15]: 95
Plant response rating, Oilseed Rape [10, 16]: 100
Plant response rating (scale of 0 to 100), Oilseed Rape ([10]; Preemergence, 31 g ai/ha): 50
Plant response rating, Oilseed Rape [10, 17]: 75
Plant response rating, Oilseed Rape [10, 18]: 100
Plant response rating, Oilseed Rape [10, 19]: 100
Plant response rating, Oilseed Rape [10, 20]: 95
Radish, Wild plant response rating [11, 14]: 95
Plant response rating, Radish, Wild [11, 15]: 100
Plant response rating, Radish, Wild [11, 16]: 100
Plant response rating (scale of 0 to 100), Radish, Wild ([11]; Preemergence, 31 g ai/ha): 40
Plant response rating, Radish, Wild [11, 17]: 70
Plant response rating, Radish, Wild [11, 18]: 100
Plant response rating, Radish, Wild [11, 19]: 100
Plant response rating, Radish, Wild [11, 20]: 100
Speedwell plant response rating [12, 14]: 80
Plant response rating, Speedwell [12, 15]: 100
Plant response rating, Speedwell [12, 16]: 100
Plant response rating (scale of 0 to 100), Speedwell ([12]; Preemergence, 31 g ai/ha): 95
Plant response rating, Speedwell [12, 17]: 100
Plant response rating, Speedwell [12, 18]: 100
Plant response rating, Speedwell [12, 19]: 100
Plant response rating, Speedwell [12, 20]: 100
Wheat, Winter plant response rating [13, 14]: 0
Plant response rating, Wheat, Winter [13, 15]: 0
Plant response rating, Wheat, Winter [13, 16]: 0
Plant response rating (scale of 0 to 100), Wheat, Winter ([13]; Preemergence, 31 g ai/ha): 0
Plant response rating, Wheat, Winter [13, 17]: 0
Plant response rating, Wheat, Winter [13, 18]: 20
Plant response rating, Wheat, Winter [13, 19]: 15
Plant response rating, Wheat, Winter [13, 20]: 0

— patent US10597388B2, “Pyridazinone herbicides” (FMC CORPORATION, priority 2014, dated 2020)
